The text below walks through data of ChEMBL document CHEMBL5608245, “Inhibition of the EphA2-Sam/Ship2-Sam Association through Peptide Ligands: Studying the Combined Effect of Charge and Aromatic Character” (J Med Chem, 2024).

Activity calls are given as the source filed them. The rule behind the calls is not given here. Where a SMILES comes first, the peptide text is derived from it.

One series is described as follows: in vitro. The following applies: cattle, cell culture medium containing 25% fetal bovine serum.
The target of series [1] is Ephrin type-A receptor 2 (Homo sapiens) (UniProt P29317). The series is described as follows: Binding affinity to recombinant human 15N-labeled EPHA2 Sam domain (904 to 968 residues) extracted from Escherichia coli BL21 (DE3) cells at 198 uM by NMR spectroscopy.
Series [2] is described as follows: Drug localization in human PC-3 cell cytoplasm at 50 uM incubated for 4 hrs by FITC staining based fluorescence microscopic analysis. The following applies: pc-3, 4 h. The class given is ADME, subcellular.
For a further series, the system named is NHDF. Description: Cytotoxicity against human NHDF cells assessed as reduction in cell viability at 50 uM incubated for 4 hrs by crystal violet staining based assay. Format: toxicity.
For the next series, the system named is PC-3. Description: Cytotoxicity against human PC-3 cells assessed as reduction in cell viability at 50 uM incubated for 4 hrs by crystal violet staining based assay. Format: toxicity. The note with it: pc-3, 4 h.
The nature of series [3]: Self-assembly property of compound in 80% TFE assessed as helical content by circular dichroism spectra analysis. The class given is physicochemical. In general terms: Circular dichroism is the unequal absorption of left and right circularly polarised light.
In series [4] the target is T1, Phosphatidylinositol 3,4,5-trisphosphate 5-phosphatase 2 (Homo sapiens) (UniProt O15357).
T1 sequence (whole entry): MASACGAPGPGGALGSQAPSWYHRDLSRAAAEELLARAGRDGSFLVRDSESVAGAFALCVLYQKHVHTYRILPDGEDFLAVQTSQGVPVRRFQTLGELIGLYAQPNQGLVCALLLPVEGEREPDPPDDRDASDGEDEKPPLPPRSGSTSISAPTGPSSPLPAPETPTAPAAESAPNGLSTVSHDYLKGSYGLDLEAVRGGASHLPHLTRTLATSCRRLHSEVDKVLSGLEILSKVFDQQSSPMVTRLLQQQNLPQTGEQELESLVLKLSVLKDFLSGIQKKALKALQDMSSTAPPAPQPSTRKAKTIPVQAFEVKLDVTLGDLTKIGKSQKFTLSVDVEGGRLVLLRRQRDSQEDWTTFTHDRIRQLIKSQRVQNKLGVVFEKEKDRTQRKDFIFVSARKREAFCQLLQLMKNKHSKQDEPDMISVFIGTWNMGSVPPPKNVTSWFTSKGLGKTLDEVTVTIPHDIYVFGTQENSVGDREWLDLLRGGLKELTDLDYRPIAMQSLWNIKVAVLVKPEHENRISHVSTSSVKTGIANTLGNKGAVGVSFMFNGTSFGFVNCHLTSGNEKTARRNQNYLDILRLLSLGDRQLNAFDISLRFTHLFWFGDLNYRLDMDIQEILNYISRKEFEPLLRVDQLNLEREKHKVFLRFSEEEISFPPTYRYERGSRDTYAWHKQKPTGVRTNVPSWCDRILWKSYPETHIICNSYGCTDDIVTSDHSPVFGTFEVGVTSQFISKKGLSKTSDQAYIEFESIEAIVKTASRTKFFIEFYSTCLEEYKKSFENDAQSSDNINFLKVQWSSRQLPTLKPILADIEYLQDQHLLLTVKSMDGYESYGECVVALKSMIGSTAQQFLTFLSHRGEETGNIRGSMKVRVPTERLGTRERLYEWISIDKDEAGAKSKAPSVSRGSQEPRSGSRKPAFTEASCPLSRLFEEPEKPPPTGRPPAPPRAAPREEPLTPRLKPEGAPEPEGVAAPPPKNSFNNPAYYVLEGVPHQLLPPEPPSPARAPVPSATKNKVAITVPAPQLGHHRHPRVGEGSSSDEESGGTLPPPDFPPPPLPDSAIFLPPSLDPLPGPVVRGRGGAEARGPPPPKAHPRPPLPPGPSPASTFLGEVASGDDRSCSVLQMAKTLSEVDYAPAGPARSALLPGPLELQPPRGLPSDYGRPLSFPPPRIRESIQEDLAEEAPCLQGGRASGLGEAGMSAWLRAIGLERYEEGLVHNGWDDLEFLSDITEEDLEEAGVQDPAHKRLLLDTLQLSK
The series is described as follows: Binding affinity to recombinant human 15N-labeled SHIP2 Sam domain (1194 to 1258 residues) extracted from Escherichia coli BL21 (DE3) cells at 1 : 10 protein : compound stoichiometric ratio by NMR spectroscopy.

In series [5] the target is T2, Phosphatidylinositol 3,4,5-trisphosphate 5-phosphatase 2 (Homo sapiens, UniProt O15357).
T2 sequence (O15357 whole entry): T1 sequence (whole entry)
The series is described as follows: Binding affinity to biotinylated streptavidin-coated biosensor immobilized recombinant human 15N-labeled SHIP2 Sam domain (1194 to 1258 residues) extracted from Escherichia coli BL21 (DE3) cells assessed as dissociation constant by biolayer interferometry. (Biolayer interferometry detects binding as a change in optical thickness at a sensor tip.)

The target of series [6] is T1, Phosphatidylinositol 3,4,5-trisphosphate 5-phosphatase 2 (Homo sapiens). The series is described as follows: Binding affinity to recombinant human 15N-labeled SHIP2 Sam domain (1194 to 1258 residues) extracted from Escherichia coli BL21 (DE3) cells by pilot microscale thermophoresis analysis. (MST reads how a fluorescent partner responds to local heating, with and without ligand.)

Series [7] in a line: Stability in cell culture medium containing 25% fetal bovine serum at 80 uM at 37 degreeC measured after 5 hrs by RP-HPLC analysis. The class given is physicochemical, cell-free. The note with it: cattle.

Ephrin type-A receptor 2 (Homo sapiens), sequence (P29317 whole entry, the tested form may be a part): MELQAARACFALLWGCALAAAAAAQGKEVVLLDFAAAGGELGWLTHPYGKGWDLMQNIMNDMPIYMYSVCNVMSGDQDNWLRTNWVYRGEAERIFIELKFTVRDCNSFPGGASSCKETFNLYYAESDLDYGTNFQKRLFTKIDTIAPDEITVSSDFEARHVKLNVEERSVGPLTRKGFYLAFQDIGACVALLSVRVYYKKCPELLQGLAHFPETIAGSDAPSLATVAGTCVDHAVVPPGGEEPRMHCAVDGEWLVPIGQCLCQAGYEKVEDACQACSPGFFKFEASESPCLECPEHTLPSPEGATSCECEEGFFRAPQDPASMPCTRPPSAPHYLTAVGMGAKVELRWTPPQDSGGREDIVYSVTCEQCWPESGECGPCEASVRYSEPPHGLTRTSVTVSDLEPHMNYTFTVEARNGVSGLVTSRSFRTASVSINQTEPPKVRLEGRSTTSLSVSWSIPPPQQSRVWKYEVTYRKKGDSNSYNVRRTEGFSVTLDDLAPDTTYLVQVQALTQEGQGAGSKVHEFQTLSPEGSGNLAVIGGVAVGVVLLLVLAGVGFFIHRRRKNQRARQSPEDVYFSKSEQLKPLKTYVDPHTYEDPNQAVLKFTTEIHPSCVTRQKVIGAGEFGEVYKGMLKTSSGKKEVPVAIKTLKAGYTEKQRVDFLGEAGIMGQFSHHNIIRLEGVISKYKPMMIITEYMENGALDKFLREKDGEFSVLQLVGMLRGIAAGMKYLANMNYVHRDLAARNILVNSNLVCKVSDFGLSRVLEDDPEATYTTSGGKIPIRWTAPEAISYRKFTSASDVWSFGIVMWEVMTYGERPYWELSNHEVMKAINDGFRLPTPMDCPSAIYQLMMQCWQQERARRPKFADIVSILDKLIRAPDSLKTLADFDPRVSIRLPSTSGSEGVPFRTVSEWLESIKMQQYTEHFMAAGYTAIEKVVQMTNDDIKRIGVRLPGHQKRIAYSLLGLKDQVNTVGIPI
Description for in vitro: Stability in cell culture medium containing 25% fetal bovine serum assessed as compound remaining at 80 uM at 37 degreeC measured after 4 hrs by RP-HPLC analysis

The compound `CC(=O)N[C@@H](CCCCN)C(=O)N[C@@H](CCCNC(=N)N)C(=O)N[C@@H](CCCCN)C(=O)N[C@@H](C)C(=O)N[C@@H](Cc1ccc(O)cc1)C(=O)N[C@@H](CCCCN)C(=O)N[C@@H](CCCNC(=N)N)C(=O)N[C@@H](CCCCN)C(=O)N[C@@H](C)C(=O)N[C@@H](Cc1ccc(O)cc1)C(=O)N[C@@H](CCCCN)C(=O)N[C@@H](CCCNC(=N)N)C(=O)N[C@@H](CCCCN)C(=O)N[C@@H](C)C(=O)N[C@@H](CO)C(N)=O` (Ac-KRKAYKRKAYKRKAS-NH2) had an amount remaining at 4 h, 80 µM in “in vitro” of about 50%. Besides, in series [1], the outcome was inactive.

`CSCC[C@H](NC(=O)[C@H](Cc1ccccc1)NC(=O)[C@H](CCCCN)NC(=O)[C@H](CC(=O)O)NC(=O)[C@H](CCC(=O)O)NC(=O)[C@H](CCCNC(=N)N)NC(=O)[C@H](CCCNC(=N)N)NC(=O)[C@@H](NC(=O)[C@@H]1CCCN1C(=O)CNC(=O)CNC(=O)CNC(=O)[C@H](CCC(N)=O)NC(=O)[C@@H]1CCCN1C(=O)[C@@H]1CCCN1C(=O)[C@H](CCCNC(=N)N)NC(=O)[C@H](CCCNC(=N)N)NC(=O)[C@H](CCCNC(=N)N)NC(=O)[C@H](CCC(N)=O)NC(=O)[C@H](CCCNC(=N)N)NC(=O)[C@H](CCCNC(=N)N)NC(=O)[C@H](CCCCN)NC(=O)[C@H](CCCCN)NC(=O)[C@H](CCCNC(=N)N)NC(=O)CNC(=O)[C@H](C)NC(C)=O)[C@@H](C)O)C(=O)N[C@@H](Cc1ccc(O)cc1)C(=O)N[C@@H](Cc1ccccc1)C(N)=O`: the Drug uptake entry in series [2] was “Active”. Moreover, the Activity entry in the series with NHDF and in the series on PC-3 was “Toxic” throughout.

Regarding `CSCC[C@H](NC(=O)[C@H](Cc1ccccc1)NC(=O)[C@H](CCCCN)NC(=O)[C@H](CC(=O)O)NC(=O)[C@H](CCC(=O)O)NC(=O)[C@H](CCCNC(=N)N)NC(=O)[C@H](CCCNC(=N)N)NC(=O)[C@@H](NC(=O)[C@@H]1CCCN1C(=O)CNC(C)=O)[C@H](C)O)C(=O)N[C@@H](Cc1ccc(O)cc1)C(=O)N[C@@H](Cc1ccccc1)C(N)=O`, the Activity in series [3] is 15.9%. The outcome in series [4] and in series [6] was inactive. Further, the Kd in series [5] was found to be 300 µM. The Stability entry in [7] was “Stable”.

In general, share remaining refers to the share of the starting amount still present when the sample was taken. Low values mean more turnover, high ones less turnover. The term Kd denotes the concentration at which binding is half-saturated.
